Values quoted from earlier work in patent US6884793B2, “Combination preparation for contraception based on natural estrogens” (Jenapharm GmbH & Co. KG, priority 1995, dated 2005).

Test system: human liver Cytochrome P-450

C#C[C@]1(O)CC[C@H]2[C@@H]3CCc4cc(O)ccc4[C@H]3CC[C@@]21C [Ethinyl estradiol, ethinyl estradiol]
effect on Cytochrome P-450 system: suicidal blockage of the Cytochrome P-450 system
